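Each compound was tested at five concentrations against cells in 96-well plates for 48 hours. Abbreviation: GI50, concentration required for 50% inhibition of growth.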 Activity calls are given as the source filed them. Cut-off read from the data, not from the text of the source: active = GI50 up to about 1.1 µM and inactive = higher.
Assays:
Assay in all cases: NCI-60 cell line screen, 48 h
MOLT-4 = test system: MOLT-4
KM12 = test system: KM12
786-0 = test system: 786-0
SF-268 = test system: SF-268
SK-MEL-5 = test system: SK-MEL-5
HOP-92 = test system: HOP-92
SF-539 = test system: SF-539
HOP-62 = test system: HOP-62
TK-10 = test system: TK-10
SNB-75 = test system: SNB-75
OVCAR-4 = test system: OVCAR-4
MCF7 = test system: MCF7
IGROV-1 = test system: IGROV-1
RPMI-8226 = test system: RPMI-8226
OVCAR-5 = test system: OVCAR-5
NCI-H460 = test system: NCI-H460
K562 = test system: K562
Hs-578T = test system: Hs-578T
A498 = test system: A498
MDA-N = test system: MDA-N

Measured: GI50

COc1cc(O)c2c(=O)c3c(C)cccc3n(C)c2c1
inactive: MOLT-4 > 10 µM | KM12 > 10 µM | 786-0 > 10 µM | SF-268 > 10 µM | SK-MEL-5 > 10 µM | HOP-92 > 10 µM | SF-539 > 10 µM | HOP-62 > 10 µM | TK-10 > 10 µM | SNB-75 > 10 µM | OVCAR-4 > 10 µM | MCF7 > 10 µM | IGROV-1 > 10 µM | RPMI-8226 > 10 µM | OVCAR-5 > 10 µM | NCI-H460 > 10 µM | K562 > 10 µM | Hs-578T > 10 µM | A498 > 10 µM | MDA-N > 10 µM

O=c1c2c3c(sc2nc2n1N=C(c1ccc(Cl)cc1)CS2)CCCC3
inactive: MOLT-4 > 100 µM | KM12 > 100 µM | 786-0 > 100 µM | SF-268 > 100 µM | SK-MEL-5 > 100 µM | HOP-92 > 100 µM | SF-539 > 100 µM | HOP-62 > 100 µM | TK-10 > 100 µM | SNB-75 > 100 µM | OVCAR-4 > 100 µM | MCF7 > 100 µM | IGROV-1 > 100 µM | RPMI-8226 > 100 µM | OVCAR-5 > 100 µM | NCI-H460 > 100 µM | K562 > 100 µM | Hs-578T > 100 µM | A498 > 100 µM | MDA-N > 100 µM

COC(OC)(c1ccccc1)C(I)I
inactive: MOLT-4 2.38 µM | KM12 16.3 µM | 786-0 8.36 µM | SF-268 19.3 µM | SK-MEL-5 8.61 µM | HOP-92 13.4 µM | SF-539 12.7 µM | HOP-62 28.1 µM | TK-10 13.3 µM | SNB-75 13.1 µM | OVCAR-4 14.2 µM | MCF7 18.7 µM | IGROV-1 13.9 µM | RPMI-8226 2.09 µM | OVCAR-5 16.2 µM | NCI-H460 16.7 µM | K562 2.58 µM | Hs-578T 20.1 µM | A498 > 10 µM | MDA-N 7.96 µM

CCOP1(=O)OCC2OC(n3cnc4c(N)ncnc43)C(O)C2O1.c1ccccc1 (stereo not given)
inactive: MOLT-4 > 100 µM | KM12 > 100 µM | 786-0 > 100 µM | SF-268 > 100 µM | SK-MEL-5 > 100 µM | HOP-92 > 100 µM | SF-539 > 100 µM | HOP-62 > 100 µM | TK-10 > 100 µM | SNB-75 > 100 µM | OVCAR-4 > 100 µM | MCF7 > 100 µM | IGROV-1 > 100 µM | RPMI-8226 > 100 µM | OVCAR-5 > 100 µM | NCI-H460 > 100 µM | K562 > 100 µM | Hs-578T > 100 µM | A498 > 100 µM | MDA-N > 100 µM

COc1ccccc1C1c2cc3c(cc2OC(N2CCCC2)C1C)OCO3 (stereo not given)
inactive: MOLT-4 3.16 µM | KM12 19.3 µM | 786-0 16.8 µM | SF-268 13.6 µM | SK-MEL-5 14.5 µM | HOP-92 3.08 µM | SF-539 14.9 µM | HOP-62 15.1 µM | TK-10 18.5 µM | SNB-75 12.9 µM | OVCAR-4 21.6 µM | MCF7 18.9 µM | IGROV-1 19.3 µM | RPMI-8226 14.8 µM | OVCAR-5 19.2 µM | NCI-H460 16.4 µM | K562 15.1 µM | Hs-578T 7.48 µM | A498 15.2 µM | MDA-N 11.1 µM

Reference: ChEMBL document CHEMBL1201862, “PubChem BioAssay data set” (2004)
